The record followed here is US4599325A, “Substituted tyrosyl alanine dipeptide amides” (G. D. Searle & Co., priority 1985, dated 1986).

Counter-ions that a name gives are not always drawn. Like-named read-outs stand apart in the source and are kept apart here.

The subject of one assay is rat cholera model. Kind of assay: Cholera-induced intestinal fluid secretion (rat cholera model). The assay is classed as in vivo. The procedure: The rat cholera model was used to determine the effect of the test compounds on intestinal fluid movements. (H. I. Jacoby and C. H. Marshall, Antagonism of Cholera Enterotoxin by Anti-inflammatory Agents in the Rat. Nature, 235, 163-165, 1972). Female Charles River rats weighing 85-100 grams and having free access to water were fasted for 24 hours prior to each experiment. After a midline incision was made under ether anesthesia, a 20-cm ligated small intestinal segment was constructed starting 3 cm distal to the ligament of Treitz. Each segment was injected, using a 27 gauge 1/2-inch needle, with crude cholera toxin in a 0.9% saline solution. Thirty minutes before cholera toxin was injected, test compounds were administered subcutaneously to groups of four rats at doses of 10 and 20 mg/kg. Four hours after injection of toxin, the animals were sacrificed and the fluid content and exact length of the intestinal segments were measured. Fluid secretion was expressed in ml/cm of intestine.
The ID50 's of these compounds were estimated using data obtained from at least two doses and at least two experiments by the method of maximum likelihood. R. A. Fischer. "Principles of Statistical Estimation." in Statistical Methods for Research Workers, 14th ed. Hafner: New York; pp. 301-339. […]

Assay [1] concerns mice. Kind of assay: Writhing assay (phenylbenzoquinone). It counts as in vivo, mouse. As to conditions: for ED50: Mus musculus; for Writhing Mouse Oral (ED50) / Writhing Mouse Subc. (ED50): Table 1; for Writhing Mouse Subc. (ED50): subcutaneous. As for the experimental part:
Male Charles River albino mice (CD-1/HAM/1LR) weighing between 20 and 30 grams were used. Thirty minutes after subcutaneous or intragastric administration of the test compound (0.1 ml/10 gram body weight), 0.025% (w/v) phenylbenzoquinone was injected intraperitoneally (0.1 ml/10 gram body weight). Five minutes later, each mouse was placed in a large glass beaker and the number of writhes that occurred in the subsequent ten minutes is counted. A writhe consisted of dorsoflexion of the back, extension of the hindlimbs, and strong contraction of the abdominal musculature. The test compound was considered to have produced analgesia in a mouse if the number of writhes elicited by phenylbenzoquinone was equal to or less than one-half the median number of writhes recorded for the saline-treated group that day. The results were expressed as the number of mice (out of a possible ten) in which the test compound produced analgesia. The test compound was rated active if writhing was inhibited (as described) in 5 of 10 mice.
The receptor binding and biological properties of the following compounds of this invention are illustrated in Tables 1 and 2 utilizing the previously described opiate binding, hot plate, tail flick, writhing assay, cholera test or hypertensive test. The standard screening dose for the hot plate test of Table 1 was 10 mg/kg i.v. and for the writhing assay was 10 mg/kg s.c. and p.o.
On the technique in general: Writhing tests count abdominal constrictions after an irritant is injected.

The next assay addresses T1, mu opiate receptor (Rattus norvegicus, UniProt P33535).
T1 construct: The receptor membrane homogenate was prepared using rat brain; from tissue; host or cells: rat brain membrane homogenate
Kind of assay: Mu opiate receptor binding (3H-Dihydromorphine). The following applies: Table 2; 3H-Dihydromorphine 0.2 nM, rat brain. The procedure: (§1) Several subtypes of opiate receptors have been identified. These multiple receptors are thought to mediate the different effects of opiates, e.g., mu receptors are believed to mediate the analgesic activity of opiates. Therefore, the relative affinities of the test compounds for the mu and the delta opiate receptors was determined. The receptor membrane homogenate was prepared using rat brain as previously described in this document. The binding assays for the mu and delta receptors were performed using a modification of the method described by Chang and Cuatrecasas. K.-J. Chang and P. Cuatrecasas. Multiple Opiate receptors: enkephalins and morphine bind to receptors of different specificity, J. Biol. Chem. 254, 2610-2618 (1979). The incubation mixtures contained 0.75 ml of homogenate (1 mg protein/ml) and 0.05 ml of ^3 H-Dihydromorphine (final concentration of 0.2 nM) or 0.05 ml ^3 H-(D)-Ala^2 -(D)-Leu^5 enkephalin (final concentration of 0.2 nM). Both the displacer, naloxone, and the test compounds were added in 0.1 ml volumes. Finally, […] tris-HCl buffer (pH 7.4 at 25° C.) was added to bring the total volume up to 1 ml. The mixture were then incubated 60 minutes at 25° C. before filtering.
(§2) The IC50 values, i.e., the concentration of the test compound that inhibited ligand specific binding to its receptor by 50%, were calculated using log-probit analysis, D. J. Finney. […]

In another assay the target is T2, delta opiate receptor (Rattus norvegicus, UniProt P33533).
T2 construct: The receptor membrane homogenate was prepared using rat brain; from tissue; host or cells: rat brain membrane homogenate
T2 sequence (P33533 whole entry): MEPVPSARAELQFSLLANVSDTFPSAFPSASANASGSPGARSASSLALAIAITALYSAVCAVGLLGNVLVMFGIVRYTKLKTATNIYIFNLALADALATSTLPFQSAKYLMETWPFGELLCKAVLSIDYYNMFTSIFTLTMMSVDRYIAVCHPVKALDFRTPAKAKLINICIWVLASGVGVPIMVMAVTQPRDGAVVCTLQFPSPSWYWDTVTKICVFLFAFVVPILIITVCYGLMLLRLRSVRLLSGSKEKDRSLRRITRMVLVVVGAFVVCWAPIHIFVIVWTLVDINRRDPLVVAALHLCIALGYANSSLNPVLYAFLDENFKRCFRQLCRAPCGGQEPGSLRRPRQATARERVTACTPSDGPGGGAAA
As to the kind of experiment: Delta opiate receptor binding (3H-(D)-Ala2-(D)-Leu5 enkephalin). The following applies: Table 2; 3H-(D)-Ala2-(D)-Leu5 enkephalin 0.2 nM, rat brain. The procedure:
as §1, §2

Assay [2] has as its system mice. Kind of assay: Hot plate test (intravenous administration). It counts as in vivo, mouse. As to conditions: 10 mg/kg i.v. The procedure: Male albino inbred mice supplied by Charles River [CD-1 (ICR)BR] weighing between 20 and 30 grams were used. The mice were placed on a 55° C. hot plate 60, 40, and 20 minutes prior to drug administration and the latencies to the lick of a paw or to a jump were recorded. Mice not responding within 15 seconds were discarded from the study. The test compound or vehicle was then administered intravenously and the animals' response latencies on the hot plate were recorded again 10, 30 and 60 minutes later. The initial test dose was 10 mg/kg. Mice not responding within 30 seconds were removed from the hot plate to prevent tissue damage and assigned the cut-off value of 30 seconds. Elevation of the response latencies to greater than twice the median of the three pre-drug latency measurements was indicative of analgesia. For each time point, the data were expressed as the number of animals having analgesic response latencies out of the total number tested. The number of analgesic animals in the test compound-treated group was then compared with the number of analgesic animals in the vehicle-treated group at each time point using Fisher's Exact Probability Test. S. Siegel, Nonparametric Statistics for the Behavioral Sciences. McGraw-Hill, New York, pp. 96-104 (1956 ). […]
On the technique in general: In hot-plate and tail-flick tests a longer latency is read as antinociception.

T1 sequence (P33535 whole entry): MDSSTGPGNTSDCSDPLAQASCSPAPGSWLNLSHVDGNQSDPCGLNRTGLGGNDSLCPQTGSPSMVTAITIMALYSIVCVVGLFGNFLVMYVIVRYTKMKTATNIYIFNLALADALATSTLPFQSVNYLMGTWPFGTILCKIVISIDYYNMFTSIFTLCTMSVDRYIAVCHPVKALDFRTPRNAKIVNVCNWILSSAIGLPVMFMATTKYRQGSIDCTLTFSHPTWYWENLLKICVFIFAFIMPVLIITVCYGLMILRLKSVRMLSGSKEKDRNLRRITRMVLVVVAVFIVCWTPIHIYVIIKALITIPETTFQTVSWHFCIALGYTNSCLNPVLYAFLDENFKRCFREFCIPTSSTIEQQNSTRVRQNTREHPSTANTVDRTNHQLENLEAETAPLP

As usually defined, the ED50 is the dose that gives a 50% effect, or the effect in half of the subjects. By IC50 is commonly meant the concentration that gives 50% inhibition. Consider `Cc1cc(O)cc(C)c1C[C@H](N)C(=O)N[C@H](C)C(=O)NCCCc1ccccc1` [Example 5, 2,6-dimethyltyrosyl-N-(3-phenylpropyl)-D-alaninamide, hydrochloride], for which the median effective dose (ED50) in the assay on rat cholera model (Rattus norvegicus, sc, read-out: Rat Cholera Test (ED50)) is 6.1 mg/kg; in the assay on mice [1] (po, Table 2, p.o., read-out: Writhing (ED50) p.o.), 0.5 mg/kg; in the assay on mice [1] (sc, Table 2, s.c., read-out: Writhing (ED50) s.c.), 0.5 mg/kg. Besides, the “Writhing Mouse Oral (ED50)” value in the assay on mice [1] (hydrochloride) amounted to 0.53 mg/kg. In addition, the “Writhing Mouse Subc. (ED50)” value in the assay on mice [1] (hydrochloride) worked out at 0.52 mg/kg. Further, the “activity in writhing test relative to the prior art, oral” value with mice [1] (administered orally, more active than prior art) came to 6 times. In addition, the “potency in writhing test relative to the prior art, subcutaneous” value in the assay on mice [1] (subcutaneous administration) was “approximately equipotent”. The values for the IC50 on mu opiate receptor and on delta opiate receptor were 0.1 nM and 1.2 nM, respectively. In addition, the “Hot Plate (I.V.) 10 mg/kg: rating and animals with analgesic latencies / tested” value in the assay with mice [2] is recorded as “Active 6/7”.

For the molecule “tyrosine-D-alanine-phenylpropylamide [Prior Art, reference compound]”, in the assay with rat cholera model (20 mg/kg s.c.), the “Rat Cholera Test, activity at stated dose” value was “Inactive”. Also, the “Writhing Mouse Oral (ED50)” value in the assay on mice [1] is reported as 0.58 mg/kg. The “Writhing Mouse Subc. (ED50)” value with mice [1] amounted to 3.10 mg/kg. The “Writhing (ED50) s.c.” value in the assay with mice [1] (Table 2, s.c.) is recorded as 0.6 mg/kg. The IC50 worked out at 8.8 nM on mu opiate receptor and 62 nM on delta opiate receptor. In the assay on mice [2], the “Hot Plate (I.V.) 10 mg/kg: rating and animals with analgesic latencies / tested” value is on record as “Inactive 0/10”.
